Measured values as given in US20080312184A1 (priority 2005, published 2008).

Tests used:
brown patch pathogen = assay: Control Test on Brown Patch of Turf Grass; format: in vivo, grass (cultivar: Pentocross); details: Table 6, single active ingredient, soaked into soil, kept for 20 days
From the text: Then, the area ratio of brown patch pathogen-attacked portion to the whole surface of the pot was examined according to the same index as in Test Example 1.

[1] = tested on: alternaria leaf spot pathogen of apples; assay: Control Test on Alternaria Leaf Spot of Apples; format: in vivo, apples (cultivar: ourin); details: Table 5, single active ingredient, examined after 20 days
From the text: After a liquid chemical was dried, 10 trees attacked by alternaria leaf spot pathogen of apples which were previously arranged to be diseased were placed on the windward side and apples of test pots placed on the leeward side by wind of an air conditioner were wind-inoculated.

SMILES: CC1=C(C(=O)Nc2ccccc2)S(=O)(=O)CCO1 [Oxycarboxin, oxycarboxin]
- Control Value (brown patch pathogen; treated concentration 20 ppm): 42

SMILES: C[Si](C)(C)CC(O)(Cn1cncn1)c1ccc(F)cc1 (centres unmarked) [Simeconazole, simeconazole]
- Control Value (brown patch pathogen; treated concentration 10 ppm): 48

SMILES: CC1(C)COC(C)(CCCc2ccc(Cl)cc2)N1C(=O)n1ccnc1.CC1(C)COC(C)(CCCc2ccc(Cl)cc2)N1C(=O)n1ccnc1.O=C(O)/C=C/C(=O)O (centres unmarked) [Oxpoconazole fumarate, oxpoconazole fumarate]
- Control Value ([1]; treated concentration 10 ppm): 46

SMILES: Clc1ccc(CSC(Cn2cncn2)=Nc2ccc(Cl)cc2Cl)cc1 [Imibenconazole, imibenconazole]
- Control Value ([1]; treated concentration 10 ppm): 42

SMILES: CCCCCCCCCCCCNC(=N)N [Dodine, dodine]
- Control Value ([1]; treated concentration 50 ppm): 44

SMILES: O=C1C(Cl)=C(Cl)C(=O)N1c1ccc(F)cc1 [Fluoroimide, fluoroimide]
- Control Value ([1]; treated concentration 30 ppm): 45

SMILES: CC(C)CC(C)c1sccc1NC(=O)c1cn(C)nc1C(F)(F)F (racemic) [P (penthiopyrad), (RS)—N-[2-(1,3-dimethylbutyl)thiophen-3-yl]-1-methyl-3-tri fluoromethyl-1H-pyrazole-4-carboxamide]
- Control Value ([1]; treated concentration 10 ppm): 50
- Control Value (brown patch pathogen; treated concentration 10 ppm): 53
